Laboratory results taken from patent US8598206B2, “Trypsin-like serine protease inhibitors, and their preparation and use” (The Medicines Company (Leipzig) GmbH, priority 2010, dated 2013).
pKi: −log10 of the molar value.

Experiments:
Format in all cases: biochemical
plasmin = plasmin (Homo sapiens (Human), UniProt P00747); assay: Determination of inhibition constants for human plasmin (chromogenic substrate); settings: 25° C., Chromozym PL substrate; read-out: h plasmin Ki
Method: (§1) Determination of the Inhibition Constants for Human Plasmin (h Plasmin) and Human Plasma Kallikrein (h PK)
(§2) The inhibitory effect for the individual enzymes was determined in analogy to a previously disclosed method (Stürzebecher et al., J. Med. Chem., 40, 3091-3099 (1997)).
(§3) 200 μl of TBS (0.05 M trishydroxymethylaminomethane; 0.154 M NaCl, 2% ethanol, pH 8.0)
(§4) 25 μl of substrate (4 mM, 2 mM and 1 mM tosyl-Gly-Pro-Lys-pNA=Chromozym PL from LOXO for plasmin and 3 mM, 1.5 mM and 1 mM H-D-Pro-Phe-Arg-pNA=S2302 from Chromogenix for PK, dissolved in H2O)
(§5) 2 μL of a test compound solution in 50% v/v DMSO/water
(§6) 50 μl of enzyme solution (plasmin from Calbiochem: 1.7 mU/ml in 0.154 M NaCl+0.1% BSA m/v; plasma kallikrein from Enzyme Research Lab.: 62 ng/ml in 0.154 M NaCl+0.1% BSA m/v)
(§7) For zero order kinetics, the reaction was stopped after 20 min by adding 15 μl of acetic acid (80% v/v), and the absorption at 405 nm was determined using a Microplate Reader (Multiscan Ascent™, from Thermo). In the case of pseudo-first order kinetics, the reaction rates in the equilibrium state were determined by continuously recording the change in absorbance at 405 nm. The Ki values were calculated by parameter fitting in accordance with the rate equation for competitive inhibition using the GraFit software, version 4. The Ki values are the average of at least three determinations.

plasma kallikrein = plasma kallikrein (Homo sapiens (Human), UniProt P03952); assay: Determination of inhibition constants for human plasma kallikrein (chromogenic substrate); settings: 25° C., S2302 substrate; read-out: h PK Ki
Method: as §1, §2, §3, §4, §5, §6, §7

[1] = biological target: human activated protein C (Homo sapiens (Human), UniProt P04070); assay: Inhibition of human activated protein C; settings: Pefachrome PCa substrate; read-out: h aPC Ki
Method: as §2, §3, §5, §7

human urinary kallikrein = human urinary kallikrein (Homo sapiens (Human), UniProt P06870); assay: Inhibition of human urinary kallikrein; settings: S-2266 substrate; read-out: h uKK Ki
Method: as §2, §3, §5, §7

[2] = biological target: human activated C1s complement component (Homo sapiens (Human), UniProt P09871); assay: Inhibition of human C1s; settings: S2314 substrate; read-out: h C1s Ki
Method: as §2, §3, §5, §7
Subcomponent “s” of Human Complement Component 1 (h C1s): Inhibition of human C1s was determined by the method described in [0092]-[0098] using native human activated C1s complement component from Calbiochem at 29 nM and Val-Ser-Arg-pNA (S2314) at 8 mM, 6 mM, and 4 mM as substrate; results are reported as Ki values (nanomolar).

[3] = biological target: human activated C1r complement component (Homo sapiens (Human), UniProt P00736); assay: Inhibition of human C1r; settings: S2314 substrate; read-out: h C1r Ki
Method: as §2, §3, §5, §7

human alpha-thrombin = human alpha-thrombin (Homo sapiens (Human), UniProt P00734); assay: Inhibition of human Factor IIa; settings: Pefachrome tPA substrate; read-out: h FIIa Ki
Method: as §2, §3, §5, §7

human Factor Xa = human Factor Xa (Homo sapiens (Human), UniProt P00742); assay: Inhibition of human Factor Xa; settings: Pefachrome FXa substrate; read-out: h FXa Ki
Method: The inhibitory effect for the individual enzymes was determined in analogy to a previously disclosed method (Stürzebecher et al., J. Med. […] In the case of pseudo-first order kinetics, the reaction rates in the equilibrium state were determined by continuously recording the change in absorbance at 405 nm. […] The Ki values are the average of at least three determinations. Human Factor Xa (h FXa): […]

human Factor XIa = human Factor XIa (Homo sapiens (Human), UniProt P03951); assay: Inhibition of human Factor XIa; settings: Pefachrome PCa substrate; read-out: h FXIa Ki
Method: as §2, §3, §5, §7

human alpha-FXIIa = human alpha-FXIIa (Homo sapiens (Human), UniProt P00748); assay: Inhibition of human alpha-Factor XIIa; settings: CHA-Gly-Arg-pNA substrate; read-out: h FXIIa Ki
Method: as §2, §3, §5, §7

human t-PA = human t-PA (Homo sapiens (Human), UniProt P00750); assay: Inhibition of human tissue-type plasminogen activator; settings: Pefachrome tPA substrate; read-out: h t-PA Ki
Method: as §2, §3, §5, §7

Chain of plasma kallikrein (P03952 391-638): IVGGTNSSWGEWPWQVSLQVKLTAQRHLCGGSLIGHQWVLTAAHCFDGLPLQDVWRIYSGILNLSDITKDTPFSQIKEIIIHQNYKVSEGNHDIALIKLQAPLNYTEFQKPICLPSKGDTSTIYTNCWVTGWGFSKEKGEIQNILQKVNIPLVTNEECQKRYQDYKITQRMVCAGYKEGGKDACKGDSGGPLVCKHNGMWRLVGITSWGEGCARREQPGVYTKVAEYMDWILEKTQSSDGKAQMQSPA
Chain of plasma kallikrein (P03952 20-390 partner): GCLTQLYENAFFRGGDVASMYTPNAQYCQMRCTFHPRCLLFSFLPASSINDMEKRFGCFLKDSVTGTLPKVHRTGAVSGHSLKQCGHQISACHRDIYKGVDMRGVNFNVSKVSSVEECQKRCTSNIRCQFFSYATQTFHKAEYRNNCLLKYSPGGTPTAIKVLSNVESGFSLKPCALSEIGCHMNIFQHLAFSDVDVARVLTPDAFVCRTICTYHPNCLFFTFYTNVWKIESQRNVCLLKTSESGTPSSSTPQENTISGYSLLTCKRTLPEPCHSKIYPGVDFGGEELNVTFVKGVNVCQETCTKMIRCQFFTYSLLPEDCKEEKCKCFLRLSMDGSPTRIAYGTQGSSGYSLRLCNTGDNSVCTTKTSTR
Chain of human Factor XIa (P03951 388-625): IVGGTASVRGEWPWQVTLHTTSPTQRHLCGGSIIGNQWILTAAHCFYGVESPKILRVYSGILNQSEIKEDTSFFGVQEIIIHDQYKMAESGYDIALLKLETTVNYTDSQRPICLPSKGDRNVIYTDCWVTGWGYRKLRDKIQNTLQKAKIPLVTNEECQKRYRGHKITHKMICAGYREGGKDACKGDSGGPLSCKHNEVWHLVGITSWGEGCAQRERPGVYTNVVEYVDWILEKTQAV
Chain of human Factor XIa (P03951 19-387 partner): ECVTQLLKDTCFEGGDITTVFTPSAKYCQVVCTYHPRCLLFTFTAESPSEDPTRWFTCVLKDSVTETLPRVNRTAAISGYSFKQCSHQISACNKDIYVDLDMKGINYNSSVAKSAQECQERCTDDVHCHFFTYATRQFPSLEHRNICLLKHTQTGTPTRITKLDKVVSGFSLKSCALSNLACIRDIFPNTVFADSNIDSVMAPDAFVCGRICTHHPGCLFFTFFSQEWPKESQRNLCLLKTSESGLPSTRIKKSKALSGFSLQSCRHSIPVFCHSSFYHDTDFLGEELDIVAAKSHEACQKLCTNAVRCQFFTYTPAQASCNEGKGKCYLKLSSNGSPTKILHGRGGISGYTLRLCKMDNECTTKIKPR
Chain of human Factor Xa (P00742 235-488): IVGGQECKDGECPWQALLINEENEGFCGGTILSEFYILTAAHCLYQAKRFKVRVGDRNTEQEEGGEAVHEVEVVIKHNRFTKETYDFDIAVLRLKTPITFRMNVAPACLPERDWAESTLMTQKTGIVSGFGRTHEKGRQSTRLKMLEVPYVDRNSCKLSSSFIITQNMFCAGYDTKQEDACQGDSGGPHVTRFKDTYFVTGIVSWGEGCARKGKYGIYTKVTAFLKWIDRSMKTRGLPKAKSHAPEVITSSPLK
Chain of human Factor Xa (P00742 41-179 partner): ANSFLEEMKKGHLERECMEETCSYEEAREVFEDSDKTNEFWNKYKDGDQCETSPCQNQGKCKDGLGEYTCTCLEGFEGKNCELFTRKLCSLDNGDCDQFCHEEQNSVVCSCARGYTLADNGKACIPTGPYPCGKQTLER
Chain of human urinary kallikrein (P06870 25-262): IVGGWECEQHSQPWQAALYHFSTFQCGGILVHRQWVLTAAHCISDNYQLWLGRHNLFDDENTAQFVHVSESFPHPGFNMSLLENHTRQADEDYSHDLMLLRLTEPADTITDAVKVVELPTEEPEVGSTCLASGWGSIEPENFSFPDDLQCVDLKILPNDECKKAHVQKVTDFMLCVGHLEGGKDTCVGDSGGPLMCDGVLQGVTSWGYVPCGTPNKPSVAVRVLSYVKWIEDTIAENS
Chain of human t-PA (P00750 36-562): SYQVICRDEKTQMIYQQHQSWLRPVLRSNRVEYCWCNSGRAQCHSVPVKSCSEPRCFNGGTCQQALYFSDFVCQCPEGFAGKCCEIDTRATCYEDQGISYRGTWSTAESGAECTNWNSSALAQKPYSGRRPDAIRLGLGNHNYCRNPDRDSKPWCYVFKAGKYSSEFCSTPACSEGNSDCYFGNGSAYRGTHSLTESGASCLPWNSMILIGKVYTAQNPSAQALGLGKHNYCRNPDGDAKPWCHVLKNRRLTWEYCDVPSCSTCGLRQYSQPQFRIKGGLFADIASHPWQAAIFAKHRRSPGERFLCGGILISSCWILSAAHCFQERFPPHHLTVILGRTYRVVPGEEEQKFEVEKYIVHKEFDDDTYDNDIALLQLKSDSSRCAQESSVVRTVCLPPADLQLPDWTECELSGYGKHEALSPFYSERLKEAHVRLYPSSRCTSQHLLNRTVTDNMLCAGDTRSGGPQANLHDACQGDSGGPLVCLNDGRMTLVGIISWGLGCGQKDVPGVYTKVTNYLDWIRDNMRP
Chain of human activated C1r complement component (P00736 464-705): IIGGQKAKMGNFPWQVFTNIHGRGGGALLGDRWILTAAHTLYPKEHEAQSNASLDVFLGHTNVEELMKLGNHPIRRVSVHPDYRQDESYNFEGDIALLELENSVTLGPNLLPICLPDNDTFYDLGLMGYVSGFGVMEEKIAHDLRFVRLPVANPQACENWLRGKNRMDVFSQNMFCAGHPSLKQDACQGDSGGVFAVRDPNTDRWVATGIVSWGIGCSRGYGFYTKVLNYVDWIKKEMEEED
Chain of human activated C1r complement component (P00736 18-463 partner): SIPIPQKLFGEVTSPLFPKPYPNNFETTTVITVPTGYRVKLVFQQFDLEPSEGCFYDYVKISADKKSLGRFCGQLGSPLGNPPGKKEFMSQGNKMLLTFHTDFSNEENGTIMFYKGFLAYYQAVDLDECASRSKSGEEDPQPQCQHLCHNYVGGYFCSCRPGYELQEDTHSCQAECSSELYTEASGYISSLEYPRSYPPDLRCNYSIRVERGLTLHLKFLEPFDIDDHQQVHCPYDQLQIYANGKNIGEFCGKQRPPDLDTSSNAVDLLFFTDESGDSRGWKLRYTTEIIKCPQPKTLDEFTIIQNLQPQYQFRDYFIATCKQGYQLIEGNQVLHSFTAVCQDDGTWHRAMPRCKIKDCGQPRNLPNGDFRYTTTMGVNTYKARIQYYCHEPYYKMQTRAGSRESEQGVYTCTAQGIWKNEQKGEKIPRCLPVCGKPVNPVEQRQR
Chain of human activated protein C (P04070 212-450): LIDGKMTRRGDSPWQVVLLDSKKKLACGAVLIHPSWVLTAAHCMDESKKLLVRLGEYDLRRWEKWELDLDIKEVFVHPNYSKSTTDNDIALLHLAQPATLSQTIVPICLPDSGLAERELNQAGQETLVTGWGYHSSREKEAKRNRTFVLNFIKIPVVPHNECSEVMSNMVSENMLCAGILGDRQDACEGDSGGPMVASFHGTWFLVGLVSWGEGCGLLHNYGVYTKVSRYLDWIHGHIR
Chain of human activated protein C (P04070 43-197 partner): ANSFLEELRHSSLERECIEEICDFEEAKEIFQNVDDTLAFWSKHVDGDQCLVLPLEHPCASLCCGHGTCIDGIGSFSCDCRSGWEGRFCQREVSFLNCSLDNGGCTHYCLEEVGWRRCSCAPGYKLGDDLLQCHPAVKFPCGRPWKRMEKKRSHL
Chain of human alpha-FXIIa (P00748 373-615): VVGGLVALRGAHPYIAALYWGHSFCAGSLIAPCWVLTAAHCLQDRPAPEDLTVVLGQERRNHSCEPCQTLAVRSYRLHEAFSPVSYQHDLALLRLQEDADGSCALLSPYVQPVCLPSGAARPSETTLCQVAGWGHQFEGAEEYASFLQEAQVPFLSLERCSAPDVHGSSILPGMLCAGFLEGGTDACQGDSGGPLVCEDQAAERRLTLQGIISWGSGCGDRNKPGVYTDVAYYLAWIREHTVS
Chain of human alpha-FXIIa (P00748 20-372 partner): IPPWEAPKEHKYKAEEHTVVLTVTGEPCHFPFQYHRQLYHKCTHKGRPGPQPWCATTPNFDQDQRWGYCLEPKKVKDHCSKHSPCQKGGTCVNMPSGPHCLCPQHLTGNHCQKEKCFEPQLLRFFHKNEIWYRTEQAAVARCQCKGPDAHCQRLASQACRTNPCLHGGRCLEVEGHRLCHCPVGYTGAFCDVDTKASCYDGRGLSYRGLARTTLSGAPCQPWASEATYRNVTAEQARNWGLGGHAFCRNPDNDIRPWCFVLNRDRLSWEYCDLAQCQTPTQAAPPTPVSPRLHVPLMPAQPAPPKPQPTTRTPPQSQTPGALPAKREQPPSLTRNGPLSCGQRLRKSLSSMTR
Chain of human activated C1s complement component (P09871 438-688): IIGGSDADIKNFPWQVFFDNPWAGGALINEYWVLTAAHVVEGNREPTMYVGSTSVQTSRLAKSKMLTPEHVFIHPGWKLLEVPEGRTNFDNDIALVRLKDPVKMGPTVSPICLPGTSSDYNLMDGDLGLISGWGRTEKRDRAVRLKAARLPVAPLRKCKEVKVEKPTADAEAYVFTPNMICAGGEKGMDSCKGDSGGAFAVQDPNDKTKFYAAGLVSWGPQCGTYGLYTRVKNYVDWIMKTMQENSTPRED
Chain of human activated C1s complement component (P09871 16-437 partner): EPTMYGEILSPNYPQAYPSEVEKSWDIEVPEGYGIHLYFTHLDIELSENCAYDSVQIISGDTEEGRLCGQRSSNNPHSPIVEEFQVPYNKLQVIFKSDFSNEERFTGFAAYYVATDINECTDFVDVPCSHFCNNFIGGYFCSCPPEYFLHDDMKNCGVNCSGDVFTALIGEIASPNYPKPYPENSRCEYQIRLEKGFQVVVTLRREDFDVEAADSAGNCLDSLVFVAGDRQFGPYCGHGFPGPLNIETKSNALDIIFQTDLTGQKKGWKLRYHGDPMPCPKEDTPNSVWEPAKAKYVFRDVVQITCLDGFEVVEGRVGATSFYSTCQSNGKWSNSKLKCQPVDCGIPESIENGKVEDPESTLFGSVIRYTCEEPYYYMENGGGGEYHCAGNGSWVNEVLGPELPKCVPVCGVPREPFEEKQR

| pKi (plasmin) | pKi (plasma kallikrein) | pKi [1] | pKi (human urinary kallikrein) | pKi [2] | pKi [3] | pKi (human alpha-thrombin) | pKi (human Factor Xa) | pKi (human Factor XIa) | pKi (human alpha-FXIIa) | pKi (human t-PA) | Structure (SMILES) |
| --- | --- | --- | --- | --- | --- | --- | --- | --- | --- | --- | --- |
| 9.10 | 9.05 | 5.92 | < 4.22 | < 4.60 | < 4.46 | 5.25 | 5.64 | 6.14 | 6.19 | 5.29 | CCC(=O)N1CCC(CC[C@@H](NS(=O)(=O)Cc2ccccc2)C(=O)N[C@@H](CCC2CCNCC2)C(=O)NCc2ccc(C(=N)N)cc2)CC1 |
| 9.40 | 8.57 | 6.22 | < 4.10 | 5.31 | < 4.30 | 5.92 | 6.07 | 6.30 | 5.82 | 5.64 | N=C(N)c1ccc(CNC(=O)[C@H](CCC2CCNCC2)NC(=O)[C@@H](CCCc2ccncc2)NS(=O)(=O)Cc2ccccc2)cc1 |
| 8.82 | 8.05 | 7.57 | < 3.70 | 5.70 | < 4.70 | 5.41 | 7.70 | 6.30 |  |  | N=C(N)c1ccc(CNC(=O)[C@H](CCC2CCNCC2)NC(=O)[C@@H](CCc2ccncc2)NS(=O)(=O)Cc2ccccc2)cc1 |
| 8.92 | 8.89 | 5.92 | < 4.00 | 4.70 | < 4.30 | 5.35 | 5.80 | 5.85 | 6.17 | 5.33 | COCC(=O)N1CCC(CC[C@@H](NS(=O)(=O)Cc2ccccc2)C(=O)N[C@@H](CCC2CCNCC2)C(=O)NCc2ccc(C(=N)N)cc2)CC1 |
| 9.15 | 8.70 | 5.87 | < 3.70 | < 5.00 | < 4.70 | 4.89 | 5.70 | 6.14 | 5.80 | 5.18 | COC(=O)N1CCC(CC[C@@H](NS(=O)(=O)Cc2ccccc2)C(=O)N[C@@H](CCC2CCNCC2)C(=O)NCc2ccc(C(=N)N)cc2)CC1 |
| 8.82 | 8.70 | 5.96 | < 3.30 | 5.05 | < 4.00 | 5.42 | 6.12 | 6.06 | 6.20 | 5.52 | CC(=O)N1CCC(CCC[C@@H](NS(=O)(=O)Cc2ccccc2)C(=O)N[C@@H](CCC2CCNCC2)C(=O)NCc2ccc(C(=N)N)cc2)CC1 |
| 9.10 | 8.40 | 5.80 | < 3.70 | 4.89 | < 4.30 | 4.89 | 5.60 | 5.82 | 5.70 | 5.08 | CN(C)C(=O)N1CCC(CC[C@@H](NS(=O)(=O)Cc2ccccc2)C(=O)N[C@@H](CCC2CCNCC2)C(=O)NCc2ccc(C(=N)N)cc2)CC1 |
| 8.66 | 7.70 | 6.68 |  |  |  | 5.77 | 5.80 | 6.00 |  |  | N=C(N)c1ccc(CNC(=O)[C@H](CCC2CCNCC2)NC(=O)[C@H](NS(=O)(=O)Cc2ccccc2)c2ccccc2)cc1 |
| 9.22 | 9.52 | 5.82 | < 4.30 | 4.72 | < 4.30 | 5.07 | 5.64 | 6.19 | 5.96 | 5.21 | N=C(N)c1ccc(CNC(=O)[C@H](CCC2CCNCC2)NC(=O)[C@@H](CCC2CCN(C(=O)C3CC3)CC2)NS(=O)(=O)Cc2ccccc2)cc1 |
| 8.42 | 8.52 | 6.51 | < 4.70 | 5.92 | < 4.70 | 5.36 | 5.62 | 7.15 |  |  | N=C(N)c1ccc(CNC(=O)[C@H](CCC2CCNCC2)NC(=O)[C@@H](CCCc2ccccc2)NS(=O)(=O)Cc2cccc(C(=O)O)c2)cc1 |
| 8.70 | 8.12 | 6.40 | < 4.30 | 5.10 | < 4.30 | 6.10 | 6.52 | 6.10 |  |  | N=C(N)c1ccc(CNC(=O)[C@H](CCC2CCNCC2)NC(=O)[C@@H](CCCC2CCNCC2)NS(=O)(=O)Cc2ccccc2)cc1 |
| 9.60 | 8.82 | 6.26 | < 4.30 | < 5.30 |  | 6.62 | 5.96 | 6.87 | 5.52 | 5.77 | N=C(N)c1ccc(CNC(=O)[C@H](CCC2CCNCC2)NC(=O)[C@@H](CCCc2ccccc2)NS(=O)(=O)Cc2ccccc2)cc1 |
| 8.57 | 8.03 | 6.24 | < 4.70 | 5.32 | < 4.52 | 6.04 | 5.23 | 6.30 | < 5.00 | 5.41 | COC(=O)c1cccc(CS(=O)(=O)N[C@H](CCCc2ccccc2)C(=O)N[C@@H](CCC2CCNCC2)C(=O)NCc2ccc(C(=N)N)cc2)c1 |
| 9.00 | 8.82 | 6.10 | < 4.00 | 5.19 | < 4.00 | 5.44 | 6.40 | 6.22 | 6.40 |  | COC(=O)N1CCC(CCC[C@@H](NS(=O)(=O)Cc2ccccc2)C(=O)N[C@@H](CCC2CCNCC2)C(=O)NCc2ccc(C(=N)N)cc2)CC1 |
| 8.30 | 7.70 | 6.60 | < 4.00 | 5.38 | < 4.30 | 5.05 | 6.92 | 5.60 |  |  | N=C(N)c1ccc(CNC(=O)[C@H](CCC2CCNCC2)NC(=O)[C@@H](CCc2cc[n+]([O-])cc2)NS(=O)(=O)Cc2ccccc2)cc1 |
| 8.52 | 8.12 | 7.22 | < 4.00 | < 4.60 | < 4.00 | 5.38 | 7.05 | 5.85 |  |  | N=C(N)c1ccc(CNC(=O)[C@H](CCC2CCNCC2)NC(=O)[C@@H](CCC2CCNCC2)NS(=O)(=O)Cc2ccccc2)cc1 |
| 8.10 | 8.28 | 5.89 | < 3.70 | < 5.00 |  | 5.33 | 5.62 | 5.85 |  |  | N=C(N)c1ccc(CNC(=O)[C@H](CCC2CCNCC2)NC(=O)[C@@H](CCCn2cnnn2)NS(=O)(=O)Cc2ccccc2)cc1 |

| Structure (SMILES) | pKi (plasmin) | pKi (plasma kallikrein) | pKi [1] | pKi (human urinary kallikrein) | pKi [2] | pKi [3] | pKi (human alpha-thrombin) | pKi (human Factor Xa) | pKi (human Factor XIa) | pKi (human alpha-FXIIa) | pKi (human t-PA) |
| --- | --- | --- | --- | --- | --- | --- | --- | --- | --- | --- | --- |
| N=C(N)c1ccc(CNC(=O)[C@H](CCC2CCNCC2)NC(=O)[C@@H](CCCc2cc[n+]([O-])cc2)NS(=O)(=O)Cc2ccccc2)cc1 [drawing 117] | 9.00 | 8.40 | 6.07 | < 3.70 | 5.00 | < 4.52 | 5.31 | 6.40 | 5.85 | 6.06 | 5.62 |
| CC(C)C(=O)N1CCC(CC[C@@H](NS(=O)(=O)Cc2ccccc2)C(=O)N[C@@H](CCC2CCNCC2)C(=O)NCc2ccc(C(=N)N)cc2)CC1 | 9.22 | 8.82 | 5.77 | < 3.70 | < 4.60 | < 4.52 | 4.89 | 5.49 | 6.04 | 5.89 | 5.19 |
